Test system: oxidative stress
Test: Overall effect of the antioxidant dietary complement on oxidative stress biomarkers in dogs
Assay type: in vivo
Conditions: provided alone
Excerpt: The evaluated biomarkers let us assure that the provision of antioxidants, particularly the mixtures of at least two antioxidants selected from Resveratrol. Pterostilbene and Vitamin E, as a dietary complement had the following effects. 1) decrease of oxidative stress, 2) highly significant decrease in the loss of skeletal muscle (CPK), 3) highly significant decrease in the loss of bone mass (ALP), and 4) decrease of 12-15% in the loss of (8(OH)dG) DNA. […] It is also possible to observe that the Vitamin E that was provided alone produced a lesser effect, compared to that of the mixture of two antioxidants that were jointly provided.

CC(=O)Oc1c(C)c(C)c2c(c1C)CCC(C)(CCCC(C)CCCC(C)CCCC(C)C)O2 (racemic) [Vitamin E, DL-alpha tocopherol acetate] was tested, and the “effect on the biomarkers compared to the mixture of two antioxidants” value was “lesser effect”.

Source: US20210228484A1, “VETERINARY THICK GEL COMPOSITION OF HIGH PALATABILITY CONTAINING ANTIOXIDANTS TO DECREASE SARCOPENIA, OSTEOPENIA AND DNA DAMAGE FROM OXIDATIVE STRESS IN DOGS, AND PROCEDURE FOR ITS OBTENTION” (priority 2018, published 2021)
